Here are results for 1 compound from patent US20220062299A1, “USE OF GLUCOCORTICOID STEROIDS IN PREVENTING AND TREATING CONDITIONS OF MUSCLE WASTING, AGING AND METABOLIC DISORDER” (NORTHWESTERN UNIVERSITY, priority 2018, published 2022).

For this assay, the system named is Wildtype (WT) mice fed high-fat chow. Kind of assay: Diet-induced obesity, wildtype mice on high-fat chow, 12 weeks. The assay is classed as in vivo, mouse. The method, then: (G) At the end of treatment, quadriceps muscles were isolated and exposed ex vivo to either 10 mM glucose or 1 mM palmitate-BSA in the presence of 1×/min electrical stimulation. […] Curves depict interquartile range and single values; histograms depict single values and mean±s.e.m.; n=10 mice/group in A-E; n=3 mice/group in F-H. *, P<0.05 vs same-diet vehicle control, 1-way ANOVA with Tukey's multi-comparison; #, P<0.05 vs vehicle, 2-way ANOVA test.
Metabolic cages. VO2 (ml/h/kg) and energy expenditure to body weight (kcal/h/kg) were assessed via indirect calorimetry using the TSE Automated Phenotyping System PhenoMaster (TSE system, Chesterfield, Mo.). Mice were singly housed in their home cages in an enclosed environmental chamber (part of the TSE system) with controlled temperature and light/dark cycles (12 hours each; 6 AM-6 PM). […] Measurements of CO2 production and O2 consumption occurred using the attached gas analyzer to assess energy expenditure. In addition, physical activity in three dimensions was monitored via infrared beam breaks through frames mounted on the perimeter of the metabolic cages. Enrichment items were omitted to avoid insulation from sensors and infrared light beam path obstruction. Results are expressed as 12 hour-period values (light/dark; 10 values per mouse). Metabolic cage assays were conducted blinded to treatment groups.
2-NBDG uptake assay and glycemia/lactate monitoring. 2-NBDG uptake assay in live myofibers was conducted adapting previously reported conditions (Zou et al., 2005). FDB muscles were collected and carefully treated with collagenase type II and hand pipetting to liberate single myofibers, following reported procedures (Demonbreun and McNally, 2015). Myofibers from two FDB muscles were collected in 1 ml Ringer's solution (for 1 l, 7.2 g NaCl, 0.17 g CaCl2, 0.37 g KCl; pH, 7.4). 200 μl of myofiber suspension were dispensed per well of chambered coverglass (#155382; Thermo Fisher, Waltham, Mass.) and imaged as baseline condition for both transmitted light (1 ms integration) and green fluorescent channels (100 ms integration) at the Zeiss Axio Observer A1 microscope, using 20× short-range objective and the ZEN 2 software (version 2011; Zeiss, Jena, Germany). Immediately after baseline imaging, myofibers were supplemented with 2 mM glucose (#D8375-1 g; Millipore Sigma, St Louis, Mo.) and 50 μM 2-NBDG (#11046; Cayman Chemical, Ann Arbor, Mich.). For insulin-dependent uptake, insulin (#12585014; Thermo Fisher, Waltham, Mass.) was added to a final […] concentration. To control Glut1-/Glut4-dependent uptake, negative control wells were further supplemented with 10 μM cytochalasin B (#C6762; Millipore Sigma, St Louis, Mo.). Myofibers were incubated for 30 minutes in a 37° C./10% CO2 incubator, then washed twice in Ringer's solution and immediately imaged in fresh Ringers' solution, using the same integration and objective settings used for pre-incubation pictures. 2-NBDG uptake was quantitated as relative fluorescent units, calculated as intra-myofiber fluorescence after incubation subtracted of average baseline fluorescence. Fluorescence intensity was quantitated through serial analysis of acquired images (3 areas of approximately 85 μm^2 were analyzed for average fluorescence value per myofiber; >10 myofibers were analyzed per mouse) with ImageJ software (Schneider et al., 2012). All glucose uptake assays were conducted blinded to treatment groups.
Glucose was measured in blood (first drop from tail venipuncture) or serum (5 μl of 1:2 dilution) with an AimStrip Plus glucometer system (Germaine Laboratories, San Antonio, Tex.) and expressed as mg/dl values. Lactate was measured in blood (second drop from tail venipuncture) or serum (5 μl of 1:2 dilution) with a Lactate Plus reader (Nova Biomedical, Waltham, Mass.) and expressed as mM values. Fasting glycemia was measured in mice after 4 hours fasting (7 AM-11 AM). […]

Setting [1] is: WT mice on high-fat chow, weekly prednisone, 12 weeks.

Structures are written as SMILES.

Consider `C[C@]12C=CC(=O)C=C1CC[C@@H]1[C@@H]2C(=O)C[C@@]2(C)[C@H]1CC[C@]2(O)C(=O)CO` [prednisone, Prednisone], for which the “ATP and phosphocreatine production of quadriceps ex vivo” value (10 mM glucose or 1 mM palmitate-BSA, normal and high-fat diet, weekly prednisone 12 weeks) was “higher levels”. Besides, the “gain of body weight” value (WT mice on high-fat chow, once weekly prednisone 1 mg/kg i.p., 12 weeks, vs vehicle) is given as “reduced”. Under setting [1], the “accrual of whole-body fat mass and adipocyte mass in the ventral fat pad” value is “reduced”; the “endpoint grip strength and running endurance” value was “significant improvement”; the “gain of hyperglycemia (fasting blood glucose over time)” value was “reduced”; the “retention of lean mass, myofiber mass and specific force” value is given as “improving”. The “ex vivo uptake of 2-NBDG in freshly isolated myofibers” value (WT mice on high-fat chow, weekly prednisone, 12 weeks, absence and presence of insulin) was “improved”. Further, the “body-wide glucose homeostasis (glucose and insulin tolerance tests)” value (WT mice on high-fat chow, weekly prednisone, 12 weeks, endpoint) is on record as “improved”. Besides, under “normal or high-fat diet chow, weekly prednisone, 12 weeks”, the “oxidative capacity and energy expenditure in the active phase (metabolic cage)” value is recorded as “increased”.
